From patent publication US20040063663A1, “Acylated cyclodextrin: guest molecule inclusion complexes” (priority 2000, published 2004)

Experiment: Thermal stability of triacetyl-β-CD (TGA)
Format: physicochemical
Experimental: In order to determine the stability of triacetyl-β-CD, a sample was heated to 400° C. at 20° C./min under nitrogen in a DuPont 2200 thermogravimetric spectrometer (FIG. 7). […] A sample of triacetyl-β-CD was then held at 300° C. for 35 minutes (FIG. 8). Even after extended heating at this temperature, only about 3.2% weight loss was observed.

Temperature until which 10% weight loss is not observed (TGA, FIG. 7): 372 °C | Weight loss observed until above 325° C. (heated to 400° C. at 20° C./min under nitrogen): ca. 0.2% | Weight loss (held at 300° C. for 35 minutes): about 3.2%
Structure (SMILES): CC(=O)OC[C@H]1O[C@@H]2O[C@H]3[C@H](OC(C)=O)[C@@H](OC(C)=O)[C@@H](O[C@H]4[C@H](OC(C)=O)[C@@H](OC(C)=O)[C@@H](O[C@H]5[C@H](OC(C)=O)[C@@H](OC(C)=O)[C@@H](O[C@H]6[C@H](OC(C)=O)[C@@H](OC(C)=O)[C@@H](O[C@H]7[C@H](OC(C)=O)[C@@H](OC(C)=O)[C@@H](O[C@H]8[C@H](OC(C)=O)[C@@H](OC(C)=O)[C@@H](O[C@H]1[C@H](OC(C)=O)[C@H]2OC(C)=O)O[C@@H]8COC(C)=O)O[C@@H]7COC(C)=O)O[C@@H]6COC(C)=O)O[C@@H]5COC(C)=O)O[C@@H]4COC(C)=O)O[C@@H]3COC(C)=O [triacetyl-β-CD, heptakis(2,3,6-tri-O-acetyl)-β-cyclodextrin]
